This assay deals with T1, mOR-I7 (Mus musculus, UniProt Q9QWU6).
T1 construct: expressed in transfected cells; host or cells: HEK 293T
T1 sequence (Q9QWU6 1-327): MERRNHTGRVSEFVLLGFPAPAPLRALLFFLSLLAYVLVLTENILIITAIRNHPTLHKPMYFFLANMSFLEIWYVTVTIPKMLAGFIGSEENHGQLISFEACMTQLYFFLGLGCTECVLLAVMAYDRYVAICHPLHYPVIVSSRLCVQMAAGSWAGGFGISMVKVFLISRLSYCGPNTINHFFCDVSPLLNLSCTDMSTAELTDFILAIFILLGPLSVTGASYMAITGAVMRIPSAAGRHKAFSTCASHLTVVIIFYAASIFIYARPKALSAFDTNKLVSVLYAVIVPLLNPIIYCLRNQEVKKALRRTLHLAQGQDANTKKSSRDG
The experiment in a line: CCBSA single cell calcium imaging (Fluo4) on HEK 293T overexpressing mOR-I7. It is filed as cell-based. The settings on record: bovine olfactory mucus incubated with 16 μl of 1M octanal, 16 hours 4° C.; 20 cells. As for the experimental part:
FIG. 3: Development of a novel olfactory functional assay. (A) Scheme of the novel assay according to the present invention, CCBSA. See details in the text. (B) Application of CCBSA on a microplate format fluorescent cell-based assay. Increasing volume of octanal were incubated in CCBSA, and applied on HEK 293T cell line overexpressing or not mOR-I7. Calcium flux was followed with fluo4 as calcium tracer. (C) Application of CCBSA on single cell calcium imaging assay. Octanal was incubated in CCBSA and applied on HEK 293T overexpressing mOR-I7. Upper panel depicts kinetics of calcium flux followed with fluo4 as calcium tracer. Octanal-incubated bovine olfactory mucus was applied at 50 s and ATP as positive control was applied at 310 s. Forty X objective was used for this experiment. Middle panel show kinetics of 20 individual cells taken off the field represented in the upper panel. Finally, a representation of the average of the 20 traces is given in the lower panel.
To further validate this assay, single cell calcium imaging assays following the same approach were performed (FIG. 3C). Bovine olfactory mucus was incubated in the presence of 16 μl of a 1M octanal solution for 16 hours at 4° C. […]
This novel assay allows thus an efficient solubilization of odorant and greatly improves the efficacy of the molecule. […] Such disproportion has never been detected in a conventional assay. […]

Consider `CCCCCCCC=O` [octanal], for which the “activation of cells overexpressing mOR-I7 (single cell fluorescence kinetics)” value is listed as “activated”.

For the origin of these results see patent US20090136968A1, “Novel in vitro methods for studying receptors recognizing volatile compounds” (Chemcom S. A., priority 2005, published 2009).
